Test results from patent US10435372B2, “Use of phenylpyrazolin-3-carboxylates for improving plant yield” (BAYER INTELLECTUAL PROPERTY GMBH, priority 2011, dated 2019).

What was measured:
Type in all cases: in vivo
spring wheat [1] = assay: Field trial: grain yield of spring wheat, postemergence treatment with MPR + epoxiconazole; conditions: EPC 125, MPR + EPC 100 + 125 g ai/ha
Text: (§1) The applications have been done with seed treatment, pre- or post-emergence treatments straight (alone, 1 application) or sequential treatments e.g. seed treatment followed by pre-emergence and/or post-emergence spray applications. The pre- or post-emergence applications were made with spray applications using 100-300 l/water per hectare. The growth stage of the crops species at the time of application are reported in the result tables. The dose rates of the herbicidal active ingredients applied alone respective in sequential application are also described in the result tables. The assessments have been done via visual ratings (0-100% scale) or counting. The trials have been harvested after crops reached the full maturity. After the harvest the total weight of kernels/seeds/beets per plot was measured. The results are reported as means over 2-4 replications. The time between applications and assessments or countings/harvest are described in the result tables as well.

winter wheat [2] = assay: Field trial: grain yield of winter wheat, postemergence treatment with mefenpyr-diethyl
Text: (§2) The trials have been carried out under natural field conditions (plot trials, 10 square meter plots, 2-4 replications).
(§3) The applications have been done with seed treatment, pre- or post-emergence treatments straight (alone, 1 application) or sequential treatments e.g. seed treatment followed by pre-emergence and/or post-emergence spray applications. The pre- or post-emergence applications were made with spray applications using 100-300 l/water per hectare. The growth stage of the crops species at the time of application are reported in the result tables. The dose rates of the herbicidal active ingredients applied alone respective in sequential application are also described in the result tables.
(§4) The assessments have been done via visual ratings (0-100% scale) or counting. The trials have been harvested after crops reached the full maturity. After the harvest the total weight of kernels/seeds/beets per plot was measured. The results are reported as means over 2-4 replications. The time between applications and assessments or countings/harvest are described in the result tables as well.

spring wheat [3] = assay: Field trial: grain yield of spring wheat, postemergence treatment with mefenpyr-diethyl
Text: as §2, §3, §4

[4] = tested on: winter oilseed rape (canola); assay: Field trial: grain yield of winter oilseed rape (canola), sequential application of mefenpyr-diethyl; conditions: 3 g ai/kg seed fb 3 × 50 g ai/ha post
Text: as §2, §3, §4
(§5) The active ingredients have been applied to the untreated, dry seeds together with a carrier. After a short period of time to let the seeds dry, they were ready to be sown in the pot or field using standard equipments.

winter barley = assay: Field trial: grain yield of winter barley, sequential application of MPR; conditions: 0.5 g ai/kg seed fb 4 × 50 g ai/ha post
Text: as §2, §3, §4, §5

sugarbeets [5] = assay: Field trial: sugar yield of sugarbeets, sequential application of mefenpyr-diethyl; conditions: 0.015 mg ai/seed fb 3 × 50 g ai/ha post
Text: as §2, §3, §4, §5

winter wheat [6] = assay: Field trial: emergence (number of plants) of winter wheat, pre-emergence application of mefenpyr-diethyl; conditions: 11 days after application
Text: as §2, §3, §4

sugarbeet = assay: Field trial: beet yield of sugarbeet, sequential application of mefenpyr-diethyl; conditions: 0.015 mg ai/seed fb 3 × 50 g ai/ha post
Text: as §2, §3, §4, §5

durum wheat = assay: Field trial: grain yield of durum wheat, seed treatment with mefenpyr-diethyl
Text: as §2, §3, §4, §5

sugarbeets [7] = assay: Field trial: emergence of sugarbeets, seed treatment with MPR; conditions: seed treatment 0.015 mg ai/seed, 28 days after planting
Text: as §2, §3, §4, §5

[8] = tested on: spring oilseed rape (canola); assay: Field trial: grain yield of spring oilseed rape (canola), postemergence treatment with MPR + tebuconazole; conditions: TBC 150, MPR + TBC 100 + 150 g ai/ha
Text: as §1

[9] = grain yield relative to UTC = 100%

Fc1ccc([C@]2(Cn3cncn3)O[C@H]2c2ccccc2Cl)cc1 (racemic) [EPC, epoxiconazole]
Relative % (spring wheat [1]; [9]): 109.7% | Difference (%) vs. UTC (spring wheat [1]; grain yield): +9.7% | Yield (grain yield at harvest) (spring wheat [1]; spring wheat, post-emergence spring, flag leaf sheath opening, harvest 55 days after application, UTC 1.84): 2.02 t/ha

CCOC(=O)C1=NN(c2ccc(Cl)cc2Cl)C(C)(C(=O)OCC)C1 (stereo not drawn) [MPR, ethyl 1-(2,4-dichlorophenyl)-5-(ethoxycarbonyl)-5-methyl-2-pyrazoline-3-carboxylate]
Relative % (winter wheat [2]; grain yield relative to UTC = 100%, 100 g ai/ha post-emergence, 84 days after application): 106.3% | Difference (%) vs. UTC (winter wheat [2]; grain yield, 100 g ai/ha post-emergence, 84 days after application): +6.3% | Yield (grain yield at harvest) (winter wheat [2]; winter wheat, 100 g ai/ha post-emergence spring, beginning of stem elongation, harvest 84 days after application, UTC 9.52): 10.12 t/ha | Relative % (spring wheat [3]; grain yield relative to UTC = 100%, 100 g ai/ha post-emergence, 72 days after application): 119.2% | Difference (%) vs. UTC (spring wheat [3]; grain yield, 100 g ai/ha post-emergence, 72 days after application): +19.2% | Yield (grain yield at harvest) (spring wheat [3]; spring wheat, 100 g ai/ha post-emergence spring, flag leaf/beginning of ear heading, harvest 72 days after application, UTC 6.06): 7.16 t/ha | Relative [4, 9]: 107% | Difference (%) vs. UTC ([4]; grain yield): +7% | Yield (grain yield at harvest) ([4]; winter oilseed rape, harvest 102 days after the last application, UTC 3.60): 3.85 t/ha | Relative (winter barley; [9]): 104% | Difference (%) vs. UTC (winter barley; grain yield): +4% | Yield (grain yield at harvest) (winter barley; winter barley, harvest 74 days after the last application, UTC 10.01): 10.45 t/ha | Relative (sugarbeets [5]; sugar yield relative to UTC = 100%): 106.1% | Difference (%) vs. UTC (sugarbeets [5]; sugar yield): +6.1% | Sugar Yield (by weight at harvest) (sugarbeets [5]; sugarbeets, harvest 162 days after the last application, UTC 5.70): 6.05 t/ha | Relative % (winter wheat [6]; number of plants relative to UTC = 100%, pre-emergence, dose 100): 107.4% | Difference (%) vs. UTC (winter wheat [6]; number of plants, pre-emergence, dose 100): +7.4% | Yield [plants/row meter] (number of plants, increased emergence) (winter wheat [6]; winter wheat, pre-emergence treatment, dose 100 g ai/ha, UTC 34.2): 36.8 plants/row meter | Relative (sugarbeet; beet yield relative to UTC = 100%): 108.1% | Difference (%) vs. UTC (sugarbeet; beet yield): +8.1% | Yield (yield of beets by weight at harvest) (sugarbeet; sugarbeet, harvest 162 days after last application, UTC 58.7): 63.5 t/ha | Yield (grain yield at harvest) (durum wheat; durum wheat, seed treatment 0.5 g ai/kg seed prior planting, harvest 158 days after application, UTC 4.45): 4.97 t/ha | Relative % (durum wheat; grain yield relative to UTC = 100%, seed treatment 0.5 g ai/kg seed): 111.7% | Difference (%) vs. UTC (durum wheat; grain yield, seed treatment 0.5 g ai/kg seed): +11.7% | Relative (sugarbeets [7]; emerged plants relative to UTC = 100%): 109.2% | Difference (%) vs. UTC (sugarbeets [7]; emerged plants): +9.2% | plants/18 row meters (emergence, counting) (sugarbeets [7]; sugarbeets, UTC 65): 71 plants/18 row meters

CC(C)(C)C(O)(CCc1ccc(Cl)cc1)Cn1cncn1 (stereo not drawn) [TBC, tebuconazole]
Relative % [8, 9]: 102% | Difference (%) vs. UTC ([8]; grain yield): +2% | Yield (grain yield at harvest) ([8]; spring oilseed rape, post-emergence spring, beginning of flowering, harvest 92 days after application, UTC 3.91): 3.98 t/ha
